In patent US20260250320A1, “LIPIDATED PEPTIDE INHIBITORS OF INTERLEUKIN-23 RECEPTOR” (Janssen Pharmaceutica NV, priority 2023, published 2026):
pIC50: −log10 of the molar value. *1 amine or outer side, *2 acyl side, *3 side chain or, on linkers, in order; H or OH if unused. Where a SMILES comes first, the peptide text is derived from it. Bridges are numbered along the chain shown (N, C = ends). Side-chain parts run from the residue outwards. [ ]: non-standard residue; d: D form. The star is where a group is joined. ξ: configuration not given here. Me3N+(CH2)2O(CH2)2O(CH2)2CO = C[N+](C)(C)CCOCCOCCC(=O)*; PEG12 = NCCOCCOCCOCCOCCOCCOCCOCCOCCOCCOCCOCCOCCC(=O)O; NH(CH2CH2O)2CH2CH2NMe3+ = C[N+](C)(C)CCOCCOCCN*; Trp(7-Me) = Cc1cccc2c(C[C@H](N)C(=O)O)c[nH]c12; X37 = Cc1cccc2c1CC=C2C[C@H](N[*:1])C(=O)[*:2]; C18 diacid = O=C(O)CCCCCCCCCCCCCCCCC(=O)*; γGlu = O=C(O)[C@H](CCC(=O)[*:2])N[*:1]; 2Nal = N[C@@H](Cc1ccc2ccccc2c1)C(=O)O; AEF = NCCOc1ccc(C[C@H](N)C(=O)O)cc1; 3Pal = N[C@@H](Cc1cccnc1)C(=O)O; Lys(Me) = CNCCCC[C@H](N)C(=O)O; Pen = CC(C)(S)[C@H](N)C(=O)O; Thp = NC1(C(=O)O)CCOCC1; X1 = C[N+](C)(C)CCCCC*; AEEA = NCCOCCOCC(=O)O; ξK = NCCCCC(N)C(=O)O; Sar = CNCC(=O)O

What was measured:
[1] = test system: IL-23-stimulated phosphorylated STAT3 in peripheral blood mononuclear cells (PBMCs); test: PBMC pSTAT3 Assay; format: cell-based; conditions: PBMCs from healthy donors; 30 min preincubation with peptide; IL-23 5 ng/mL for 30 min; phospho-STAT3 by MSD
Procedure, shortened: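 Phospho-STAT3 quantified by Meso Scale assay in lysates of PBMCs exposed to IL-23 (5 ng/mL, 30 min, 37 °C) after 30 min peptide pretreatment. Cells were cryopreserved donor PBMCs activated 4 days with anti-CD3 plus IL-1β (100 ng/mL) and starved ~4 h; IC50 reported.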

[2] = biological target: T1, IL-23R (Homo sapiens, UniProt Q5VWK5); test: IL23R Reporter Assay; format: cell-based; conditions: HEK293 cells containing IL-23R, IL-12Rβ1 and STAT-inducible firefly luciferase reporter; 10 ng/mL IL-23 (EC90); 5 h
T1 construct: HEK293 cells containing IL-23R, IL-12Rβ1 and a firefly luciferase reporter gene driven by a STAT-inducible promoter (Promega); host or cells: HEK293
T1 sequence (Q5VWK5 24-629): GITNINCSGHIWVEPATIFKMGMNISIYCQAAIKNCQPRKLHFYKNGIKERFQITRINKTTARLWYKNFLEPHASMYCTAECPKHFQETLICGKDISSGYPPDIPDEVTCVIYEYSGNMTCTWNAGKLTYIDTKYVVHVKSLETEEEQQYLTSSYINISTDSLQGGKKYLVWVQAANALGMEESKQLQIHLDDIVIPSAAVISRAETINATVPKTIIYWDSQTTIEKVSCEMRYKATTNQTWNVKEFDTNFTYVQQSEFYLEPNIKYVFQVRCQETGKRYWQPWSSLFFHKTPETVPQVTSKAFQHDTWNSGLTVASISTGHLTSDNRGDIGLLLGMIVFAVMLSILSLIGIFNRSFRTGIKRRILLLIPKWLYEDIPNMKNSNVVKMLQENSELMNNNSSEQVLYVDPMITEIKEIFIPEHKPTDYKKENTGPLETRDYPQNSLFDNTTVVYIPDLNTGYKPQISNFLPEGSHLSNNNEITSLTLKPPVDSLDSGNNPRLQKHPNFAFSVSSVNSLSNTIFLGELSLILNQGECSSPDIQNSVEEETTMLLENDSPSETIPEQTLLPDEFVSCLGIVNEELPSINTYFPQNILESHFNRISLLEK
Procedure, shortened: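 IC50 values were fitted with a 4-parameter Hill equation to luciferase signal, scaled between IL-23-only wells (0% inhibition) and 30 μM reference inhibitor (100%). The readout was a STAT-inducible reporter in IL-23R/IL-12Rβ1 HEK293 cells, stimulated with added 10 ng/mL IL-23 (EC90) for 5 h at 37° C and developed with BioGlo.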

pIC50 [2] | SMILES | pIC50 [1]
> 7.30 | CC(=O)N(C)CCCC[C@H](NC(=O)C1(NC(=O)[C@H](Cc2ccc3ccccc3c2)NC(=O)[C@H](Cc2ccc(OCCCCC[N+](C)(C)C)cc2)NC(=O)[C@H]2NC(=O)[C@H](CCCCNC(=O)CCOCCOCCOCCOCCOCCOCCOCCOCCOCCOCCOCCOCCNC(=O)CC[C@H](NC(=O)CCCCCCCCCCCCCCCCC(=O)O)C(=O)O)NC(=O)[C@H](CC3=CCc4c(C)cccc43)NC(=O)[C@H]([C@@H](C)O)NC(=O)[C@H](CC(=O)N(C)C)NC(=O)[C@@H](NC(=O)CCOCCOCC[N+](C)(C)C)C(C)(C)SSC2(C)C)CCOCC1)C(=O)N[C@@H](CC(N)=O)C(=O)N[C@@H](Cc1cccnc1)C(=O)N(C)CC(=O)N(C)C [compound 124, cPEG3aCO-Pen(3)-N(N(Me)2)-T-7MeW-K(PEG12gEC18OH)-Pen(3)-TMAPF-2Nal-THP-K(NMeAc)-N-3Pya-Sar-CON(Me)2] ({Me3N+(CH2)2O(CH2)2O(CH2)2CO}-[Pen]D(NMe2)T[X37]K([PEG12-γGlu-C18 diacid])[Pen]Y(X1)[2Nal][Thp][Lys(Me)](Ac)N[3Pal][Sar]-NMe2; disulfide 1-6) | > 9.30
> 7.30 | CC(=O)N[C@H](CCCNC(=N)N)C(=O)N[C@@H]1C(=O)N[C@@H](CC(N)=O)C(=O)N[C@@H]([C@@H](C)O)C(=O)N[C@@H](Cc2c[nH]c3c(C)cccc23)C(=O)N[C@@H](CCC(N)=O)C(=O)N[C@H](C(=O)N[C@@H](Cc2ccc(OCCN)cc2)C(=O)N[C@@H](Cc2ccc3ccccc3c2)C(=O)NC2(C(=O)N[C@@H](CCC(=O)O)C(=O)N[C@@H](CC(N)=O)C(=O)N[C@@H](Cc3cccnc3)C(=O)N(C)CC(=O)N[C@@H](CCCCNC(=O)COCCOCCNC(=O)COCCOCCNC(=O)CC[C@H](NC(=O)CCCCCCCCCCCCCCCCC(=O)O)C(=O)O)C(=O)O)CCOCC2)C(C)(C)SSC1(C)C [compound 38, MeCO-r-Pen(3)-N-T-7MeW-Q-Pen(3)-AEF-2Nal-THP-E-N-3Pya-Sar-K(PEG2PEG2gEC18OH)-CONH2] (Ac-[dR][Pen]NT[Trp(7-Me)]Q[Pen][AEF][2Nal][Thp]EN[3Pal][Sar]K([AEEA-AEEA-γGlu-C18 diacid])-OH; disulfide 2-7) | > 9.30
6.30 to 7.30 | CC(=O)N[C@H](CCCNC(=N)N)C(=O)N[C@@H]1C(=O)N[C@@H](CC(N)=O)C(=O)N[C@@H]([C@@H](C)O)C(=O)N[C@@H](Cc2c[nH]c3c(C)cccc23)C(=O)NC(CCCCNC(=O)COCCOCCNC(=O)COCCOCCNC(=O)CC[C@H](NC(=O)CCCCCCCCCCCCCCCCC(=O)O)C(=O)O)C(=O)N[C@H](C(=O)N[C@@H](Cc2ccc(OCCN)cc2)C(=O)N[C@@H](Cc2ccc3ccccc3c2)C(=O)NC2(C(=O)N[C@@H](CCC(=O)O)C(=O)N[C@@H](CC(N)=O)C(=O)N[C@@H](Cc3cccnc3)C(=O)N(C)CC(N)=O)CCOCC2)C(C)(C)SSC1(C)C (stereo partly drawn) [compound 59, MeCO-r-Pen(3)-N-T-7MeW-K(PEG2PEG2gEC18OH)-Pen(3)-AEF-2Nal-THP-E-N-3Pya-Sar-CONH2] (Ac-[dR][Pen]NT[Trp(7-Me)][ξK]([AEEA-AEEA-γGlu-C18 diacid])[Pen][AEF][2Nal][Thp]EN[3Pal][Sar]-NH2; disulfide 2-7) | > 9.30
≤ 6.30 | CC(=O)NCCCC[C@@H]1NC(=O)[C@H](Cc2c[nH]c3c(C)cccc23)NC(=O)[C@H]([C@@H](C)O)NC(=O)[C@H](CCCCNC(=O)COCCOCCNC(=O)COCCOCCNC(=O)CC[C@H](NC(=O)CCCCCCCCCCCCCCCCC(=O)O)C(=O)O)NC(=O)[C@@H](NC(=O)[C@@H](CCCNC(=N)N)NC(C)=O)C(C)(C)SSC(C)(C)[C@@H](C(=O)N[C@@H](Cc2ccc(OCCN)cc2)C(=O)N[C@@H](Cc2ccc3ccccc3c2)C(=O)NC2(C(=O)N[C@@H](CCC(=O)O)C(=O)N[C@@H](CC(N)=O)C(=O)N[C@@H](Cc3cccnc3)C(=O)N(C)CC(=O)NCCOCCOCC[N+](C)(C)C)CCOCC2)NC1=O [compound 66, MeCO-r-Pen(3)-K(PEG2PEG2gEC18OH)-T-7MeW-K(Ac)-Pen(3)-AEF-2Nal-THP-E-N-3Pya-Sar-CONH(PEG3a)] (Ac-[dR][Pen]K([AEEA-AEEA-γGlu-C18 diacid])T[Trp(7-Me)]K(Ac)[Pen][AEF][2Nal][Thp]EN[3Pal][Sar]-{NH(CH2CH2O)2CH2CH2NMe3+}; disulfide 2-7) | 8.30 to 9.30
